One series deals with T1, YAP-TEAD interaction (Homo sapiens, UniProt P28347).
T1 construct: expressed in transfected cells; host or cells: HEK293 GripTite 293 MSR (Invitrogen R795-07)
The series is described as follows: Cell-based TEAD-GAL4 transactivation assay (luciferase reporter). The conditions noted are these: HEK293 cells transfected with TEAD1-Gal4, YAP mutant (S127A, S397A) and luciferase reporter, compounds 0.1 μM to 30 μM; for Emax: HEK293, 24 h, read-out: TEAD-GAL4 Transactivation activity Max Act. The essentials: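 HEK293 cells transiently transfected with Gal4-DBD–full-length human TEAD1, full-length YAP S127A/S397A (YAP/TEAD ratio 10) and a 5×GAL4-RE TK-luciferase reporter. Six hours later, compounds added semi-log from 0.1 to 30 μM (DMSO 0.5% control) for 24 h. Luciferase read; IC50 from 3-parameter fit.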
Background: A reporter such as luciferase makes a cellular process visible.

The test system of a further series is Met5A cell line. The series is described as follows: Cell proliferation in YAP-independent cell line (EdU). The class given is cell-based. As to conditions: FIG. 1 (▪). As to the method: (§1) The tumor cell growth inhibitory activity of the YAP-TEAD interaction inhibitors was evaluated in NCI-H-2052 mesothelioma cell line harboring a NF2 mutation. This cell line was selected based on its mutational status and the ability of a siRNA directed against YAP, TAZ or TEAD1-4 to inhibit cell proliferation. The nuclear localization of YAP at confluence was also taken into account. Based on these observations we were able to classify several “YAP dependent cells” where YAP is clearly nuclear and in which a cell growth inhibition is observed by using siRNA (NCI-H-2052, SKOV-3, ACHN, A549) and the “YAP independent cells” where YAP is preferentially located in the cytoplasm and in which no inhibition of cell growth is observed by using a siRNA (SW620, Met-5a). […] After one day growth in the starvation medium, cells were incubated with compounds. The starting concentration was 30 μM and serial dilutions in DMSO and medium were performed until 0.1 μM to achieve a final DMSO concentration of 0.5%. The cells were then allowed to grow for 3 days, and then, EdU (Invitrogen, Molecular Probe) was added in each well at a final concentration of 10 μM and the cells were returned to the incubator for an additional 24 h. The starvation medium was removed and 100 μl of PFA 4% containing Hoechst dye was adding in each well to fix the cells. Plates were then incubated at rt for 15 min, washed twice with PBS and the cells were permeabilized by adding 100 μl per well of triton-100 containing 0.3% BSA. After 20 min, cells were washed with PBS and EdU detection was performed according to the instructions of the manufacturer. Image acquisition was performed using the ImageXpress Micro and analyzed using the MetaXpress software (Molecular Device). Results were expressed as a percent of inhibition (%) of the cell proliferation values obtained with 0.5% DMSO treatment alone. The cellular response was determined by fitting the concentration response curves using a 3 parameter curve fit equation and determining the concentration that inhibited cell growth between 50% and 100%.

The test system of series [1] is NCI-H2052 mesothelioma cell. The series is described as follows: Inhibition of malignant mesothelioma tumor cell growth (EdU proliferation). The class given is cell-based. The conditions noted are these: NF2 mutated cell line; FIG. 1 (x). As to the method: as §1

Molecules are shown by their SMILES.

T1 sequence (P28347 whole entry): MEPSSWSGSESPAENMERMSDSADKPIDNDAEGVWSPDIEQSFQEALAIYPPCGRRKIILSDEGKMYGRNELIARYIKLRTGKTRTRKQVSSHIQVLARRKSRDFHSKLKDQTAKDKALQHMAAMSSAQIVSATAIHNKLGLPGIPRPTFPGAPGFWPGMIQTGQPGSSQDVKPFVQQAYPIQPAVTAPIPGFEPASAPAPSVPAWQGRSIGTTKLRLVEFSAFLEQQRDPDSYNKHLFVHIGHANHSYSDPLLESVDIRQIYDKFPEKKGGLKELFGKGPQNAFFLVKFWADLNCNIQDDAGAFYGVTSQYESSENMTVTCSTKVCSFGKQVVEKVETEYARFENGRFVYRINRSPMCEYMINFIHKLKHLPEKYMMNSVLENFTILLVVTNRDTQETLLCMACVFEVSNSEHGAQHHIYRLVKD

Regarding `CCN(/N=C/c1ccc2c(c1)COB2O)c1ncnc2nc(SC)sc12.Cl` [Ex83, N-ethyl-N-[(E)-(1-hydroxy-3H-2,1-benzoxaborol-5-yl)methyleneamino]-2-methylsulfanyl-thiazolo[4,5-d]pyrimidin-7-amine hydrochloride], the melting point (usually the temperature of the solid-liquid transition) lay within 248 to 264 °C. Further, the Emax at YAP-TEAD interaction is 94%. The midpoint of inhibition on YAP-TEAD interaction (24 h), the IC50, lay at 0.23 µM.

Compound `CCN(/N=C/c1ccc2c(c1)COB2O)c1ncnc2occc12` [Ex 43, N-ethyl-N-[(E)-(1-hydroxy-3H-2,1-benzoxaborol-5-yl)methyleneamino]furo[2,3-d]pyrimidin-4-amine] came in with a melting point of 225 °C. For the same compound, the Emax on YAP-TEAD interaction worked out at 78%. At YAP-TEAD interaction (24 h), inhibition was half-maximal at 0.42 µM (IC50).

In turn, `COCCN(/N=C/c1ccc2c(c1)COB2O)c1ncnc2c(C)csc12` [Ex94, N-[(E)-(1-hydroxy-3H-2,1-benzoxaborol-5-yl)methyleneamino]-N-(2-methoxyethyl)-7-methyl-thieno[3,2-d]pyrimidin-4-amine] registered a melting point of 240 to 253 °C. Also, at YAP-TEAD interaction, the Emax was found to be 80%. Further, the IC50 (commonly the concentration that inhibits the measured activity by half) at YAP-TEAD interaction (24 h) came out at 0.46 µM.

For `Cc1csc2c(N(C)/N=C/c3ccc4c(c3)COB4O)ncnc12` [Ex77, N-[(E)-(1-hydroxy-3H-2,1-benzoxaborol-5-yl)methyleneamino]-N,7-dimethyl-thieno[3,2-d]pyrimidin-4-amine], the melting point is 231 °C. Further, the Emax at YAP-TEAD interaction was determined as 82%. Besides, the IC50 on YAP-TEAD interaction (24 h) was found to be 0.32 µM.

With `COc1cc(/C=N/N(C)c2ncnc3c(C)csc23)ccc1B(O)O` [Ex71, [2-methoxy-4-[(E)-[methyl-(7-methylthieno[3,2-d]pyrimidin-4-yl) hydrazono]methyl]phenyl]boronic acid], the melting point was 237 to 267 °C. Besides, the Emax at YAP-TEAD interaction came to 68%. The same compound displayed an IC50 against YAP-TEAD interaction (24 h) of 1.14 µM.

The compound `CSc1nc2ncnc(N(CC(C)C)/N=C/c3ccc4c(c3)COB4O)c2s1` [Ex92, N-[(E)-(1-hydroxy-3H-2,1-benzoxaborol-5-yl)methyleneamino]-N-isobutyl-2-methylsulfanyl-thiazolo[4,5-d]pyrimidin-7-amine] registered a melting point of 214 to 246 °C. In addition, the Emax on YAP-TEAD interaction stood at 91%. In addition, the 50% inhibitory concentration (IC50) against YAP-TEAD interaction (24 h) amounted to 0.17 µM.

In turn, `CCN(/N=C/c1ccc2c(c1)COB2O)c1ncnc2nc(N(C)C)sc12` [Ex79, N7-ethyl-N7-[(E)-(1-hydroxy-3H-2,1-benzoxaborol-5-yl)methyleneamino]-N2,N2-dimethyl-thiazolo[4,5-d]pyrimidine-2,7-diamine] had a melting point of 247 to 253 °C. Besides, the Emax on YAP-TEAD interaction turned out to be 90%. The compound further gave an IC50 against YAP-TEAD interaction (24 h) of 1.01 µM.

For `COc1cc(/C=N/N(CC(C)C)c2ncnc3ccsc23)ccc1B(O)O` [Ex 20, [4-[(E)-[isobutyl(thieno[3,2-d]pyrimidin-4-yl)hydrazono]methyl]-2-methoxy-phenyl] boronic acid], in the series on Met5A cell line, the “effect in the Met5A cell line” value is reported as “without showing any effect”. Moreover, in series [1], the “NCI-H2052 mesothelioma cell proliferation” value is “inhibited”. Further, on YAP-TEAD interaction, the Emax turned out to be 87%. Half-maximal inhibition against YAP-TEAD interaction (24 h) (IC50) was put at 1.34 µM.

For `COCCN(/N=C/c1ccc2c(c1)COB2O)c1ncnc2nc(SC)sc12.Cl` [Ex95, N-[(E)-(1-hydroxy-3H-2,1-benzoxaborol-5-yl)methyleneamino]-N-(2-methoxyethyl)-2-methylsulfanyl-thiazolo[4,5-d]pyrimidin-7-amine, hydrochloride], the melting point fell in the range of 252 to 264 °C. Also, at YAP-TEAD interaction, the Emax worked out at 85%. Besides, on YAP-TEAD interaction (24 h), the IC50 was 0.13 µM.

`CCN(/N=C/c1ccc2c(c1)COB2O)c1ncnc2nc(N3CCOCC3)sc12` [Ex82, N-ethyl-N-[(E)-(1-hydroxy-3H-2,1-benzoxaborol-5-yl)methyleneamino]-2-morpholino-thiazolo[4,5-d]pyrimidin-7-amine]: the melting point was in the range of 183 to 189 °C. In addition, the Emax on YAP-TEAD interaction came to 89%. The compound also yielded an IC50 against YAP-TEAD interaction (24 h) of 2.37 µM.

The compound `COCCN(/N=C/c1ccc2c(c1)COB2O)C1=NS(=O)(=O)c2ccccc21` [Ex 24, N-[(E)-(1-hydroxy-3H-2,1-benzoxaborol-5-yl)methyleneamino]-N-(2-methoxyethyl)-1,1-dioxo-1,2-benzothiazol-3-amine] returned a melting point of 227 °C. In addition, on YAP-TEAD interaction, the Emax is 76%. This compound registered an IC50 against YAP-TEAD interaction (24 h) of 5.19 µM.

`CCN(/N=C/c1ccc2c(c1)COB2O)c1ncnc2[nH]ccc12` [Ex 39, N-ethyl-N-[(E)-(1-hydroxy-3H-2,1-benzoxaborol-5-yl)methyleneamino]-7H-pyrrolo[2,3-d]pyrimidin-4-amine]: the melting point was found to be 245 °C. On YAP-TEAD interaction, the Emax stood at 81%. Further, at YAP-TEAD interaction (24 h), the IC50 was determined as 1.2 µM.

`CCN(/N=C/c1ccc2c(c1)COB2O)c1ncnc2c(C)n[nH]c12` [Ex80, N-ethyl-N-[(E)-(1-hydroxy-3H-2,1-benzoxaborol-5-yl)methyleneamino]-3-methyl-1H-pyrazolo[4,3-d]pyrimidin-7-amine] registered a melting point of 265 to 276 °C. Moreover, the Emax at YAP-TEAD interaction worked out at 69%. The IC50 against YAP-TEAD interaction (24 h) worked out at 1.96 µM.

Regarding `Cc1ccc2c(c1)S(=O)(=O)N=C2N(CC(C)C)/N=C/c1ccc2c(c1)COB2O` [Ex 31, N-[(E)-(1-hydroxy-3H-2,1-benzoxaborol-5-yl)methyleneamino]-N-isobutyl-6-methyl-1,1-dioxo-1,2-benzothiazol-3-amine], the melting point worked out at 182 °C. The Emax on YAP-TEAD interaction turned out to be 90%. For the same compound, the IC50 against YAP-TEAD interaction (24 h) was found to be 4.13 µM.

Consider `CN(/N=C/c1ccc2c(c1)COB2O)c1ncnc2c1CC(=O)N2C` [Ex99, 4-[[(E)-(1-hydroxy-3H-2,1-benzoxaborol-5-yl)methyleneamino]-methyl-amino]-7-methyl-5H-pyrrolo[2,3-d]pyrimidin-6-one], for which the melting point is 288 to 307 °C. In addition, at YAP-TEAD interaction, the Emax stood at 91%. Moreover, half-maximal inhibition against YAP-TEAD interaction (24 h) (IC50) was put at 2.12 µM.

In turn, `CN(/N=C/c1ccc2c(c1)COB2O)c1ncnc2c1[nH]c(=O)n2C` [Ex98, 6-[[(E)-(1-hydroxy-3H-2,1-benzoxaborol-5-yl)methyleneamino]-methyl-amino]-9-methyl-7H-purin-8-one] had a melting point of 180 to 200 °C. For the same compound, the Emax at YAP-TEAD interaction amounted to 86%. Also, inhibition against YAP-TEAD interaction (24 h) was half-maximal at 1.31 µM (IC50).

`CN(/N=C/c1ccc2c(c1)COB2O)c1ncnc2c1[nH]c(=O)n2C12CC(C1)C2` [Ex110, 9-(3-bicyclo[1.1.1]pentanyl)-6-[[(E)-(1-hydroxy-3H-2,1-benzoxaborol-5-yl)methyleneamino]-methyl-amino]-7H-purin-8-one] had a melting point of 259 to 270 °C. On YAP-TEAD interaction, the Emax was found to be 81%. Besides, on YAP-TEAD interaction (24 h), the IC50 is 2.41 µM.

In turn, `CN(/N=C/c1ccc2c(c1)COB2O)c1ncnc2c1cnn2C` [Ex76, N-[(E)-(1-hydroxy-3H-2,1-benzoxaborol-5-yl)methyleneamino]-N,1-dimethyl-pyrazolo[3,4-d]pyrimidin-4-amine] gave a melting point of 250 to 260 °C. The Emax at YAP-TEAD interaction was 86%. This compound displayed an IC50 against YAP-TEAD interaction (24 h) of 0.96 µM.

On to `CCN(/N=C/c1ccc2c(c1)COB2O)C1=NS(=O)(=O)c2ccccc21` [Ex 27, N-ethyl-N-[(E)-(1-hydroxy-3H-2,1-benzoxaborol-5-yl)methyleneamino]-1,1-dioxo-1,2-benzothiazol-3-amine], for which the melting point stood at 218 °C. In addition, the Emax at YAP-TEAD interaction amounted to 83%. Half-maximal inhibition against YAP-TEAD interaction (24 h) (IC50) required 6.46 µM.

As for `COc1cc(C2=NN(c3ncnc4c(OC)cccc34)C(C)CC2)ccc1B(O)O` (single isomer, unassigned; isomer 2) [Ex125, [2-methoxy-4-[2-(8-methoxyquinazolin-4-yl)-3-methyl-4,5-dihydro-3H-pyridazin-6-yl]phenyl]boronic acid (isomer 2)], on YAP-TEAD interaction (24 h), the midpoint of inhibition, the IC50, lay at 3.52 µM and the “TEAD-GAL4 Transactivation activity Max Act” value was 86%.

Turning to `COc1cc(/C=N/N(CC(C)C)c2ncnc3c(OC)cccc23)ccc1B(O)O` [Ex 13, [4-[(E)-[isobutyl-(8-methoxyquinazolin-4-yl)hydrazono]methyl]-2-methoxy-phenyl] boronic acid], the Emax on YAP-TEAD interaction was 95%. Also, at YAP-TEAD interaction (24 h), the IC50 stood at 5.78 µM.

Source of the values: US11999758B2, “Inhibitors of the YAP/TAZ-TEAD interaction and their use in the treatment of cancer” (INVENTIVA, priority 2018, dated 2024).
